Results: patent US7569225B2, “Immunogenic lipopeptides comprising T-helper and B-cell epitopes” (The Council of The Queensland Institute of Medical Research, priority 2002, dated 2009)
Values joined by “and” are separate entries in the source; they are usually repeats but may differ in a detail not shown here. Equal values may be shown once. “Also recorded” adds a separate entry of the source. Read-outs that look alike come from different tables or passages of the source. Where no end group is shown, it is not given here. Pam3Cys = lipoamino acid of Formula (III) conjugated to the N-terminus; Pam2Cys = lipid of Formula (II)

What was measured:
[1] = Solubility of peptides and lipopeptides in saline (visual inspection); type: physicochemical; details: for solubility / appearance of solution: visual inspection
Procedure: FIG. 2 is a photographic representation showing the solubilities of lipopeptides designated [Th]-Lys(Pam2Cys-Ser-Ser)-[B] (left) and Pam2Cys-Ser-Ser-[Th]-[B] (right) in FIG. 1, wherein the polypeptide moieties have the amino acid sequences set forth in SEQ ID NO: 7 and SEQ ID NO: 5, respectively. Both solutions are approximately 1 mg/ml lipopeptide in saline solution.
Enhanced solubility was most evident in those cases where lipid was attached between the two epitopes at the approximate centre of the molecule. The lipopeptides designated [Th]-Lys(Pam2Cys)-[B] and [Th]-Lys(Pam3Cys)-[B] were soluble in saline at concentrations of at least 8 mg/ml (no higher concentrations were examined), whereas constructs in which lipid was attached to the N-terminus of the sequence formed opalescent solutions at concentrations as low as 0.25 mg/ml.
We considered that the insoluble nature of this construct would prevent it from being considered as a viable proposition for manufacture as a vaccine.

J14 [2] = details: Quackenbush mice, 60 μg intranasally, three doses, 6 days after last dose
Procedure: Female outbred Quackenbush mice 4-6 weeks old (15/group) were inoculated intranasally with 60 μg of peptide-based vaccine in a total volume of 30 μl PBS. Mice received three doses of vaccine at 21-day intervals. Fecal IgA was determined 6 days following the last dose of antigen.

J14 [3] = details: Quackenbush mice, 60 μg intranasally, three doses at 21-day intervals, seven days after final dose; versus control groups
Procedure: The lipoamino acid moiety Pam2Cys-Ser-Ser was added to an internal lysine positioned between the T-helper epitope and the B-cell epitope in all lipopeptides tested. In the lipopeptide [Th]-Lys(Pam2Cys-Ser-Ser)-[J14], this is the only lipid moiety, whereas in the lipopeptide Pam2Cys-Ser-Ser-[Th]-Lys(Pam2Cys-Ser-Ser)-[J14], an additional lipoamino acid moiety Pam2Cys-Ser-Ser was added to the N-terminal amino group of the T-helper epitope. […] Seven days following the final dose mice were bled from the tail vein and J14-specific serum IgG was determined.
ELISA assays were carried out on serum samples as described essentially by Ghosh et al., Int Immun. […] The titres of antibody are expressed as the reciprocal of the highest dilution of serum to achieve an OD of 0.2, which represents approximately 5 times the background binding in the absence of antibody. The isotype of antibodies specific for LHRH or J14 was determined using rabbit antisera directed against mouse IgM, IgG1, IgG2a, IgG2b, IgG3 or IgA (ICN Pharmaceuticals Inc., Costa Mesa, Calif.) as previously described by Ghosh et al., Int Immun.
Female outbred Quackenbush mice 4-6 weeks old (15/group) were inoculated intranasally with 60 μg of peptide-based vaccine in a total volume of 30 μl PBS. […] Seven days following the final dose mice were bled from the tail vein and J14-specific serum IgG was determined.

J14 [4] = details: Quackenbush mice, 60 μg intranasally, three doses, eight days after final dose; versus control groups
Procedure: Female outbred Quackenbush mice 4-6 weeks old (15/group) were inoculated intranasally with 60 μg of each peptide-based vaccine in a total volume of 30 μl PBS. Mice received three doses of vaccine at 21-day intervals. Eight days following the final dose saliva was collected from individual mice and the average J14-specific salivary IgA antibody titres were determined by standard ELISA.
Female outbred Quackenbush mice 4-6 weeks old (15/group) were inoculated intranasally with 60 μg of peptide-based vaccine in a total volume of 30 μl PBS. Mice received three doses of vaccine at 21-day intervals. […] Eight days following the final dose saliva was collected from individual mice and the average J14-specific salivary IgA antibody titres were determined by standard ELISA.

M1 GAS strain = test: Survival of inoculated mice after intranasal challenge with GAS; type: in vivo, Group A Streptococcus; details: Quackenbush mice, challenge two weeks after last dose
Procedure: Two weeks after the last dose of antigen, mice were challenged intranasally with M1 GAS strain and survival determined at various time points afterwards.
Female outbred Quackenbush mice 4-6 weeks old (15/group) were inoculated intranasally with 60 μg of peptide-based vaccine in a total volume of 30 μl PBS. Mice received three doses of vaccine at 21-day intervals. […] Two weeks after the last dose of antigen, mice were challenged intranasally with M1 GAS strain and survival determined at various time points afterwards.

D1 cells = type: cell-based, BALB/c mouse
female mice = type: in vivo, BALB/c mice; details: for Incidence of pregnancy 13 weeks after 2nd Dose / Incidence of pregnancy 2 weeks after 2nd Dose: 20 nmoles subcutaneously; for Incidence of pregnancy 13 weeks after 2nd Dose: animals per group of five; for Incidence of pregnancy 2 weeks after 2nd Dose: animals that dropped litters per group of five; for Pregnancy status (No. of animals per group that dropped litters): fertility experiment initiated two weeks after second dose

Molecule: CCCCCCCCCCCCCCCC(=O)OCC(CSC[C@H](N)C(=O)NCCCC[C@H](NC(=O)[C@H](CO)NC(=O)[C@H](CCCCN)NC(=O)[C@H](CC(C)C)NC(=O)[C@H](CCC(=O)O)NC(=O)[C@@H](NC(=O)CNC(=O)[C@H](CCCCN)NC(=O)[C@@H](NC(=O)[C@H](CCC(N)=O)NC(=O)[C@H](Cc1ccccc1)NC(=O)[C@H](CCCNC(=N)N)NC(=O)[C@H](CC(N)=O)NC(=O)[C@H](CC(N)=O)NC(=O)[C@H](CC(C)C)NC(=O)[C@H](C)NC(=O)CN)[C@@H](C)CC)C(C)C)C(=O)N[C@@H](CCC(=O)O)C(=O)N[C@@H](Cc1c[nH]cn1)C(=O)N[C@@H](Cc1c[nH]c2ccccc12)C(=O)N[C@@H](CO)C(=O)N[C@@H](Cc1ccc(O)cc1)C(=O)NCC(=O)N[C@@H](CC(C)C)C(=O)N[C@@H](CCCNC(=N)N)C(=O)N1CCC[C@H]1C(=O)NCC(=O)O)OC(=O)CCCCCCCCCCCCCCC (some centres unmarked) [[Th]-Lys(Pam2Cys)-[B]]
- solubility ([1]; no higher concentrations were examined, read-out: soluble in saline at concentrations of at least): ≥ 8000 µg/mL

Molecule: [Th]-Lys(Pam2Cys-Ser-Ser)-[J14]: P25-Lys-J14 (SEQ ID NO: 106) with Pam2Cys-Ser-Ser on the internal lysine between the epitopes (KLIPNASLIENCTKAELKKQAEDKVKASREAKKQVEKALEQLEDKVK; not fully specified (residue 18); also: Pam2Cys-Ser-Ser on internal lysine between the epitopes (K18 or K19))
- faecal IgA titres (FIG. 15) (J14 [2]): significant (P<0.05) faecal IgA titres
- J14-specific serum IgG titres (FIG. 12) (J14 [3]): significantly higher (P<0.05) serum IgG titres
- J14-specific salivary IgA titres (FIG. 14) (J14 [4]): far superior
- survival following intranasal challenge with GAS (FIG. 16) (M1 GAS strain): best survival

Molecule: Pam2Cys-[Th]—[B]: lipid of Formula (II) conjugated to the N-terminus of peptide [Th]-[B] (SEQ ID NO: 5) (Pam2Cys-GALNNRFQIKGVELKSEHWSYGLRPG)
- ability to cause maturation of DC / up-regulate MHC class II expression (FIG. 5) (D1 cells): least effective
- Incidence of pregnancy 13 weeks after 2nd Dose (female mice): 3/5
- Incidence of pregnancy 2 weeks after 2nd Dose (female mice): 2/5
- Incidence of pregnancy 2 weeks after 2nd Dose (female mice; listed as Pam2Cys-[Th]-[B]): two animals

Molecule: GALNNRFQIKGVELKSEHWSYGLRPG [[Th]—[B]]
- Pregnancy status (No. of animals per group that dropped litters) (female mice; 1 nmole, subcutaneous): 3/5
- Pregnancy status (No. of animals per group that dropped litters) (female mice; 10 nmole, subcutaneous): 1/5
- Incidence of pregnancy 13 weeks after 2nd Dose (female mice): 0/5
- Incidence of pregnancy 13 weeks after 2nd Dose (female mice; listed as [Th]-[B]): still infertile
- Incidence of pregnancy 2 weeks after 2nd Dose (female mice): 0/5
- Incidence of pregnancy 2 weeks after 2nd Dose (female mice; listed as [Th]-[B]): None of the mice
- Pregnancy No. animals per group that dropped litters (female mice; subcutaneous, initiated two weeks after second dose): 0/5

Molecule: GALNNRFQIKGVELKSKEHWSYGLRPG [[Th]-Lys-[B]]
- D1 maturation rate (D1 cells): about 26%
- Incidence of pregnancy 13 weeks after 2nd Dose (female mice): still infertile and 0/5
- Incidence of pregnancy 2 weeks after 2nd Dose (female mice): None of the mice and 0/5

Molecule: CCCCCCCCCCCCCCCC(=O)OCC(CSC[C@H](N)C(=O)N[C@@H](CO)C(=O)N[C@@H](CO)C(=O)NCCCC[C@H](NC(=O)[C@H](CO)NC(=O)[C@H](CCCCN)NC(=O)[C@H](CC(C)C)NC(=O)[C@H](CCC(=O)O)NC(=O)[C@@H](NC(=O)CNC(=O)[C@H](CCCCN)NC(=O)[C@@H](NC(=O)[C@H](CCC(N)=O)NC(=O)[C@H](Cc1ccccc1)NC(=O)[C@H](CCCNC(=N)N)NC(=O)[C@H](CC(N)=O)NC(=O)[C@H](CC(N)=O)NC(=O)[C@H](CC(C)C)NC(=O)[C@H](C)NC(=O)CN)[C@@H](C)CC)C(C)C)C(=O)N[C@@H](CCC(=O)O)C(=O)N[C@@H](Cc1c[nH]cn1)C(=O)N[C@@H](Cc1c[nH]c2ccccc12)C(=O)N[C@@H](CO)C(=O)N[C@@H](Cc1ccc(O)cc1)C(=O)NCC(=O)N[C@@H](CC(C)C)C(=O)N[C@@H](CCCNC(=N)N)C(=O)N1CCC[C@H]1C(=O)NCC(=O)O)OC(=O)CCCCCCCCCCCCCCC (stereo partly drawn) [[Th]-Lys(Pam2Cys-Ser-Ser)-[B]]
- solubility / appearance of solution [1]: clear; also recorded: higher solubility

Molecule: Pam3Cys-Ser-Ser-[Th]—[B]: lipoamino acid of Formula (III) conjugated to the N-terminus of peptide [Th]-[B] (SEQ ID NO: 5) (Pam3Cys-SSGALNNRFQIKGVELKSEHWSYGLRPG)
- Incidence of pregnancy 13 weeks after 2nd Dose (female mice): 0/5
- Incidence of pregnancy 2 weeks after 2nd Dose (female mice): 2/5
- Incidence of pregnancy 2 weeks after 2nd Dose (female mice; listed as Pam3Cys-Ser-Ser-[Th]-[B]): two animals
- solubility / appearance of solution [1]: so insoluble that it could not be purified by RP-HPLC

Molecule: [Th]-[J14]: non-lipidated peptide of T-helper epitope P25 (SEQ ID NO: 24) and J14 (SEQ ID NO: 101) (KLIPNASLIENCTKAELKQAEDKVKASREAKKQVEKALEQLEDKVK)
- survival following intranasal challenge with GAS (FIG. 16) (M1 GAS strain): some protective immunity

Molecule: CCCCCCCCCCCCCCCC(=O)OCC(CSC[C@H](N)C(=O)N[C@@H](CO)C(=O)N[C@@H](CO)C(=O)NCC(=O)N[C@@H](C)C(=O)N[C@@H](CC(C)C)C(=O)N[C@@H](CC(N)=O)C(=O)N[C@@H](CC(N)=O)C(=O)N[C@@H](CCCNC(=N)N)C(=O)N[C@@H](Cc1ccccc1)C(=O)N[C@@H](CCC(N)=O)C(=O)N[C@H](C(=O)N[C@@H](CCCCN)C(=O)NCC(=O)N[C@H](C(=O)N[C@@H](CCC(=O)O)C(=O)N[C@@H](CC(C)C)C(=O)N[C@@H](CCCCN)C(=O)N[C@@H](CO)C(=O)N[C@@H](CCC(=O)O)C(=O)N[C@@H](Cc1c[nH]cn1)C(=O)N[C@@H](Cc1c[nH]c2ccccc12)C(=O)N[C@@H](CO)C(=O)N[C@@H](Cc1ccc(O)cc1)C(=O)NCC(=O)N[C@@H](CC(C)C)C(=O)N[C@@H](CCCNC(=N)N)C(=O)N1CCC[C@H]1C(=O)NCC(=O)O)C(C)C)[C@@H](C)CC)OC(=O)CCCCCCCCCCCCCCC (stereo partly drawn) [Pam2Cys-Ser-Ser-[Th]—[B]]
- solubility / appearance of solution [1]: opalescent
